IC50 data for two molecules are collected here from BindingDB's records for doi:10.1016/j.bmcl.2006.01.126 (Amgen, 2006).

This experiment can be described thus: Inhibition of TARC-mediated CEM cell migration.

Take `c1ccc2c(Nc3nc(CN(CC4CCCCC4)CC4CCCCC4)cs3)cccc2c1` [4-((bis(cyclohexylmethyl)amino)methyl)-N-(naphthalen-1-yl)thiazol-2-amine]: the IC50 (in general, the concentration at which inhibition is half-maximal) was 0.53 µM.

`Cc1csc(Nc2cccc3ccccc23)n1` [4-methyl-N-(naphthalen-1-yl)thiazol-2-amine] displayed an IC50 of 6.4 µM.
